Experimental data as given in the NIST ThermoML archive (doi:10.1021/je5010214).

Details: Liquid, Vibrating tube method

CCCCO [butan-1-ol]
Details	mass density [kg/m3]
353.15 K, 65063 kPa	811.071
353.16 K, 2113.4 kPa	763.181
353.16 K, 33964 kPa	790.701
353.16 K, 62043 kPa	809.275
353.16 K, 66024 kPa	811.636
358.15 K, 264.1 kPa	755.935
358.15 K, 508.4 kPa	756.19
358.15 K, 926.8 kPa	756.64
358.15 K, 1013.9 kPa	756.732
358.15 K, 3021.2 kPa	758.947
358.15 K, 4930 kPa	760.98
358.15 K, 10073 kPa	766.29
358.15 K, 12137 kPa	768.259
358.15 K, 14905 kPa	770.903
358.15 K, 17041 kPa	772.871
358.15 K, 17965 kPa	773.738
358.15 K, 22175 kPa	777.415
358.15 K, 25059 kPa	779.849
358.15 K, 28035 kPa	782.278
358.15 K, 30002 kPa	783.844
358.15 K, 31978 kPa	785.37
358.15 K, 32793 kPa	786.01
358.15 K, 33850 kPa	786.716
358.15 K, 35027 kPa	787.554
358.15 K, 37872 kPa	789.731
358.15 K, 40037 kPa	791.31
358.15 K, 42100 kPa	792.749
358.15 K, 47958 kPa	796.761
358.15 K, 50038 kPa	798.154
358.15 K, 52081 kPa	799.474
358.15 K, 55073 kPa	801.393
358.15 K, 57918 kPa	803.161
358.15 K, 60043 kPa	804.453
358.15 K, 62067 kPa	805.674
358.15 K, 64986 kPa	807.407
358.15 K, 66109 kPa	808.067
358.16 K, 95.1 kPa	755.754
358.16 K, 2083.9 kPa	757.886
358.16 K, 6993.5 kPa	763.142
358.16 K, 9030.2 kPa	765.202
358.16 K, 20162 kPa	775.665
358.16 K, 45054 kPa	794.81
363.15 K, 94 kPa	752.456
363.15 K, 334 kPa	752.741
363.15 K, 601.7 kPa	753.061
363.15 K, 892.9 kPa	753.404
363.15 K, 961.6 kPa	753.487
363.15 K, 1034.7 kPa	753.567
363.15 K, 1986 kPa	754.594
363.15 K, 2940.4 kPa	755.648
363.15 K, 4979.2 kPa	757.84
363.15 K, 9959.5 kPa	762.855
363.15 K, 11971 kPa	764.806
363.15 K, 14936 kPa	767.534
363.15 K, 17973 kPa	770.255
363.15 K, 19940 kPa	771.991
363.15 K, 24872 kPa	776.146
363.15 K, 27993 kPa	778.673
363.15 K, 30062 kPa	780.285
363.15 K, 31961 kPa	781.745
363.15 K, 33033 kPa	782.563
363.15 K, 34000 kPa	783.178
363.15 K, 35028 kPa	783.945
363.15 K, 37919 kPa	786.081
363.15 K, 39916 kPa	787.488
363.15 K, 42016 kPa	788.986
363.15 K, 47947 kPa	793.03
363.15 K, 50050 kPa	794.458
363.15 K, 52023 kPa	795.718
363.15 K, 54940 kPa	797.589
363.15 K, 57917 kPa	799.479
363.15 K, 59980 kPa	800.724
363.15 K, 62043 kPa	802.008
363.15 K, 64924 kPa	803.734
363.15 K, 66088 kPa	804.418
363.16 K, 6920.2 kPa	759.821
363.16 K, 8964.8 kPa	761.886
363.16 K, 21933 kPa	773.696
363.16 K, 44987 kPa	791.029
